Legend:
Test in all cases: CDK Kinase Inhibition Assay
Conditions in all cases: 25 °C
[1] = target: Calcium/calmodulin-dependent protein kinase type II subunit alpha (Rattus norvegicus, UniProt P11275)
[2] = target: cAMP-dependent protein kinase catalytic subunit alpha (Bos taurus, UniProt P00517)
[3] = target: Cyclin-dependent kinase 2/G1/S-specific cyclin-E1 (Homo sapiens, UniProt P24941)

Sequence of Calcium/calmodulin-dependent protein kinase type II subunit alpha (P11275 whole entry): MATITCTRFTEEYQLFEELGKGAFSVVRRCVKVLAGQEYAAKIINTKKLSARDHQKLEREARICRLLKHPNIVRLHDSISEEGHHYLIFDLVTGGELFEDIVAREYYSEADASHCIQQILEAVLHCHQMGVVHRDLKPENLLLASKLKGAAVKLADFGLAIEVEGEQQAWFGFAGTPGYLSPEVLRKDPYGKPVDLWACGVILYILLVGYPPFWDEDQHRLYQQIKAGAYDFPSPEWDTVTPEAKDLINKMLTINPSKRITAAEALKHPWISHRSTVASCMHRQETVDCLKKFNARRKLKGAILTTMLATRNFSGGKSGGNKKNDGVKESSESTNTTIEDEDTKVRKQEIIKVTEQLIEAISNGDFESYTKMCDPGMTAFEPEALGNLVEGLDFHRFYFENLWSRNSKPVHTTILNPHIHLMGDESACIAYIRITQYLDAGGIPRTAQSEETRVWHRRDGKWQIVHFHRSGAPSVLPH

| IC50 [1] [µM] | IC50 [2] [µM] | Structure (SMILES) | IC50 [3] [µM] |
| --- | --- | --- | --- |
| > 20 | > 20 | COc1ccc2c3c4c(c5c(ccc6ccn(C)c65)c3n(CCCN3CCSCC3)c2c1)C(=O)NC4=O [6-methoxy-18-methyl-3-[3-(thiomorpholin-4-yl)propyl]-3,13,18-triazahexacyclo[14.7.0.0^{2,10}.0^{4,9}.0^{11,15}.0^{17,21}]tricosa-1(16),2(10),4(9),5,7,11(15),17(21),19,22-nonaene-12,14-dione] |  |
|  |  | COc1ccc2c3c4c(c5c(ccc6ccn(C)c65)c3n(CCCN3CCC(O)CC3)c2c1)C(=O)NC4=O [3-[3-(4-hydroxypiperidin-1-yl)propyl]-6-methoxy-18-methyl-3,13,18-triazahexacyclo[14.7.0.0^{2,10}.0^{4,9}.0^{11,15}.0^{17,21}]tricosa-1(16),2(10),4(9),5,7,11(15),17(21),19,22-nonaene-12,14-dione] | 2.1 |
| > 20 | > 20 | COc1ccc2c3c4c(c5c(ccc6ccn(C)c65)c3n(CCN3CCCCC3)c2c1)C(=O)NC4=O [6-methoxy-18-methyl-3-[2-(piperidin-1-yl)ethyl]-3,13,18-triazahexacyclo[14.7.0.0^{2,10}.0^{4,9}.0^{11,15}.0^{17,21}]tricosa-1(16),2(10),4(9),5,7,11(15),17(21),19,22-nonaene-12,14-dione] |  |
| > 20 | > 20 | COc1ccc2c3c4c(c5c(ccc6ccn(C)c65)c3n(CCCN3CCOCC3)c2c1)C(=O)NC4=O [6-methoxy-18-methyl-3-[3-(morpholin-4-yl)propyl]-3,13,18-triazahexacyclo[14.7.0.0^{2,10}.0^{4,9}.0^{11,15}.0^{17,21}]tricosa-1(16),2(10),4(9),5,7,11(15),17(21),19,22-nonaene-12,14-dione] |  |
|  | > 20 | Cn1ccc2ccc3c4[nH]c5c(CCN6CCOCC6)cccc5c4c4c(c3c21)C(=O)NC4=O [18-methyl-5-[2-(morpholin-4-yl)ethyl]-3,13,18-triazahexacyclo[14.7.0.0^{2,10}.0^{4,9}.0^{11,15}.0^{17,21}]tricosa-1(16),2(10),4(9),5,7,11(15),17(21),19,22-nonaene-12,14-dione] |  |

| Structure (SMILES) | IC50 [1] [µM] | IC50 [2] [µM] | IC50 [3] [µM] |
| --- | --- | --- | --- |
| CCc1ccc2c(c1)[nH]c1c3ccc4ccn(C)c4c3c3c(c21)C(=O)NC3=O [6-ethyl-18-methyl-3,13,18-triazahexacyclo[14.7.0.0^{2,10}.0^{4,9}.0^{11,15}.0^{17,21}]tricosa-1(16),2(10),4(9),5,7,11(15),17(21),19,22-nonaene-12,14-dione] |  | > 20 | 0.36 |

— BindingDB's records for doi:10.1016/s0960-894x(03)00461-x (Eli Lilly, 2003)
